# Laboratory results from publication PMC8286840, “Identifying SARS-CoV-2 antiviral compounds by screening for small molecule inhibitors of Nsp3 papain-like protease” (Biochemical Journal, 2021).
# Where a name gives a salt, the structure may show the parent alone. Read-outs that look alike come from different tables or passages of the source.
# How the values were obtained:
# [1] = target: T1, SARS-CoV-2 PLpro (nsp3 1564–1878) (Severe acute respiratory syndrome coronavirus 2, UniProt P0DTD1); assay: biochemical; set-up: FRET-quenched peptide (Pro3) cleavage by PLpro, 10 min pre-incubation, slope over 20 min, normalised to no-compound control; conditions: high concentration screen, read-out: % of control remaining
# [2] = target: T1, SARS-CoV-2 PLpro (nsp3 1564–1878); assay: biochemical; set-up: FRET-quenched peptide (Pro3) cleavage by PLpro, 10 min pre-incubation, slope over 20 min, normalised to no-compound control; conditions: low concentration screen, read-out: % of control remaining
smiles,measurement,setting,value
Cc1noc(NS(=O)(=O)c2ccc(N)cc2)c1C [Sulfisoxazole],remaining activity at 3.75 µM,[1]; Well no.=4664,97.2%
same,remaining activity at 3.75 µM,[1]; Well no.=7548,101%
same,remaining activity at 3.75 µM,[1]; Well no.=8283,97.6%
same,remaining activity at 1.25 µM,[2]; Well no.=4664,95.8%
same,remaining activity at 1.25 µM,[2]; Well no.=7548,104%
same,remaining activity at 1.25 µM,[2]; Well no.=8283,97.8%
CSc1ccc(/C=C2/C(C)=C(CC(=O)O)c3cc(F)ccc32)cc1 [Sulindac sulfide],remaining activity at 3.75 µM,[1]; Well no.=6089,93.8%
same,remaining activity at 1.25 µM,[2]; Well no.=6089,96.2%
CC1=C(CC(=O)O)c2cc(F)ccc2/C1=C\c1ccc(S(C)(=O)=O)cc1 [Sulindac sulfone],remaining activity at 3.75 µM,[1]; Well no.=1500,96.6%
same,remaining activity at 1.25 µM,[2]; Well no.=1500,95.3%
CC1=C(CC(=O)O)c2cc(F)ccc2/C1=C\c1ccc([S+](C)[O-])cc1 (centres unmarked) [Sulindac],remaining activity at 3.75 µM,[1]; Well no.=1270,105%
same,remaining activity at 3.75 µM,[1]; Well no.=1756,96.7%
same,remaining activity at 1.25 µM,[2]; Well no.=1270,102%
same,remaining activity at 1.25 µM,[2]; Well no.=1756,98.1%
CCN1CCCC1CNC(=O)c1cc(S(N)(=O)=O)ccc1OC (centres unmarked) [Sulpiride],remaining activity at 3.75 µM,[1]; Well no.=6423,97.9%
same,remaining activity at 1.25 µM,[2]; Well no.=6423,99.1%
CN[C@@H]1Cc2cccc3[nH]c(=O)n(c23)C1 [Sumanirole maleate],remaining activity at 3.75 µM,[1]; Well no.=5386,104%
same,remaining activity at 1.25 µM,[2]; Well no.=5386,99.1%
CNS(=O)(=O)Cc1ccc2[nH]cc(CCN(C)C)c2c1 [Sumatriptan (succinate)],remaining activity at 3.75 µM,[1]; Well no.=6379,91%
same,remaining activity at 1.25 µM,[2]; Well no.=6379,104%
CNS(=O)(=O)Cc1ccc2[nH]cc(CCN(C)C)c2c1 [Sumatriptan Succinate],remaining activity at 3.75 µM,[1]; Well no.=2085,97.6%
same,remaining activity at 1.25 µM,[2]; Well no.=2085,96.9%
CCN(CC)CCNC(=O)c1c(C)[nH]c(/C=C2\C(=O)Nc3ccc(F)cc32)c1C [Sunitinib],remaining activity at 3.75 µM,[1]; Well no.=2703,100%
same,remaining activity at 1.25 µM,[2]; Well no.=2703,102%
O=S(=O)(O)c1ccc(N=Nc2c(O)ccc3cc(S(=O)(=O)O)ccc23)cc1 [Sunset Yellow FCF],remaining activity at 3.75 µM,[1]; Well no.=8500,92.1%
same,remaining activity at 1.25 µM,[2]; Well no.=8500,95.1%
CCOCC(O)COc1ccc(NC(=O)CC[S+](C)C)cc1 (centres unmarked) [Suplatast tosylate],remaining activity at 3.75 µM,[1]; Well no.=4714,106%
same,remaining activity at 1.25 µM,[2]; Well no.=4714,107%
Cc1ccc(C(=O)Nc2ccc(S(=O)(=O)O)c3cc(S(=O)(=O)O)cc(S(=O)(=O)O)c23)cc1NC(=O)c1cccc(NC(=O)Nc2cccc(C(=O)Nc3cc(C(=O)Nc4ccc(S(=O)(=O)O)c5cc(S(=O)(=O)O)cc(S(=O)(=O)O)c45)ccc3C)c2)c1 [Suramin (sodium salt)],remaining activity at 3.75 µM,[1]; Well no.=8141,98.9%
same,remaining activity at 1.25 µM,[2]; Well no.=8141,105%
Cc1ccc(C(=O)Nc2ccc(S(=O)(=O)O)c3cc(S(=O)(=O)O)cc(S(=O)(=O)O)c23)cc1NC(=O)c1cccc(NC(=O)Nc2cccc(C(=O)Nc3cc(C(=O)Nc4ccc(S(=O)(=O)O)c5cc(S(=O)(=O)O)cc(S(=O)(=O)O)c45)ccc3C)c2)c1 [Suramin],remaining activity at 3.75 µM,[1]; Well no.=1622,96.7%
same,remaining activity at 1.25 µM,[2]; Well no.=1622,99.2%
O[C@H]1[C@H]2[C@H](O)CCCN2C[C@H]1O [Swainsonine],remaining activity at 3.75 µM,[1]; Well no.=3176,100%
same,remaining activity at 1.25 µM,[2]; Well no.=3176,97.3%
O=[N+]([O-])/C=C/c1ccc2c(c1)OCO2 [Syk Inhibitor III],remaining activity at 3.75 µM,[1]; Well no.=2599,97.6%
same,remaining activity at 1.25 µM,[2]; Well no.=2599,97.9%
NCCNc1ncc(C(N)=O)c(Nc2cccc(C(F)(F)F)c2)n1 [Syk Inhibitor II],remaining activity at 3.75 µM,[1]; Well no.=2597,101%
same,remaining activity at 1.25 µM,[2]; Well no.=2597,99.7%
Cn1cc(/C=C2\C(=O)Nc3ccc(S(N)(=O)=O)cc32)c2ccccc21 [Syk Inhibitor],remaining activity at 3.75 µM,[1]; Well no.=2595,96.7%
same,remaining activity at 1.25 µM,[2]; Well no.=2595,96.8%
CNCC(O)c1ccc(O)cc1 (centres unmarked) [Synephrine (hydrochloride)],remaining activity at 3.75 µM,[1]; Well no.=6699,101%
same,remaining activity at 1.25 µM,[2]; Well no.=6699,100%
CNCC(O)c1ccc(O)cc1 (centres unmarked) [Synephrine HCl],remaining activity at 3.75 µM,[1]; Well no.=4900,91.7%
same,remaining activity at 1.25 µM,[2]; Well no.=4900,95.6%
CCOC(=O)Oc1c(OC)cc(C(=O)O[C@@H]2C[C@@H]3CN4CCc5c([nH]c6cc(OC)ccc56)[C@H]4C[C@@H]3[C@H](C(=O)OC)[C@H]2OC)cc1OC [Syrosingopine],remaining activity at 3.75 µM,[1]; Well no.=3310,98.6%
same,remaining activity at 1.25 µM,[2]; Well no.=3310,100%
Cc1cc(C(=O)Nc2cccc(C(=O)Nc3cccc(C(F)(F)F)c3)c2)on1 [T56-LIMKi],remaining activity at 3.75 µM,[1]; Well no.=5920,98.1%
same,remaining activity at 1.25 µM,[2]; Well no.=5920,101%
O=C(Nc1ccncc1)c1cc([N+](=O)[O-])ccc1Cl [T0070907],remaining activity at 3.75 µM,[1]; Well no.=4833,106%
same,remaining activity at 1.25 µM,[2]; Well no.=4833,103%
COC(=O)c1c(-c2cc(OC)c(OC)c(OC)c2)c2ccnc(OCc3ncccn3)c2c(=O)n1Cc1ccnc(C)c1 [T-0156],remaining activity at 3.75 µM,[1]; Well no.=1230,102%
same,remaining activity at 1.25 µM,[2]; Well no.=1230,102%
COc1cn(-c2ccc(-n3cccn3)cc2F)nc(-c2ccnn2-c2ccccc2)c1=O [TAK-063],remaining activity at 3.75 µM,[1]; Well no.=8728,94.2%
same,remaining activity at 1.25 µM,[2]; Well no.=8728,98.2%
CC(=O)N1CCC(C(=O)N(CCCN2CCC(Cc3ccc(C(N)=O)cc3)CC2)c2ccc(C)c(Cl)c2)CC1 [TAK-220],remaining activity at 3.75 µM,[1]; Well no.=8363,92.9%
same,remaining activity at 1.25 µM,[2]; Well no.=8363,94.6%
NS(=O)(=O)OC[C@H]1C[C@@H](Nc2ccnc3cc(-c4cccc(SC(F)(F)F)c4)nn23)[C@H](O)[C@@H]1O [TAK-243],remaining activity at 3.75 µM,[1]; Well no.=7078,97%
same,remaining activity at 1.25 µM,[2]; Well no.=7078,102%
CC(C)(O)CC(=O)NCCn1ccc2ncnc(Nc3ccc(Oc4cccc(C(F)(F)F)c4)c(Cl)c3)c21 [TAK-285],remaining activity at 3.75 µM,[1]; Well no.=4743,104%
same,remaining activity at 1.25 µM,[2]; Well no.=4743,102%
CNCc1cc(-c2ccccc2F)n(S(=O)(=O)c2cccnc2)c1 [TAK-438],remaining activity at 3.75 µM,[1]; Well no.=4794,93%
same,remaining activity at 1.25 µM,[2]; Well no.=4794,91.8%
CNC(=O)c1ccc2cc([C@@]3(O)CCn4cncc43)ccc2c1 [TAK-700 (Orteronel)],remaining activity at 3.75 µM,[1]; Well no.=4725,96.7%
same,remaining activity at 1.25 µM,[2]; Well no.=4725,98.2%
CCc1nc(-c2cccc(C)c2)c(-c2ccnc(NC(=O)c3ccccc3)c2)s1 [TAK-715],remaining activity at 3.75 µM,[1]; Well no.=2751,104%
same,remaining activity at 1.25 µM,[2]; Well no.=2751,99.2%
Cn1c(=O)c(F)c(Nc2ccc(I)cc2F)c2c(=O)n(C[C@@H](O)CO)cnc21 [TAK-733],remaining activity at 3.75 µM,[1]; Well no.=4954,97.8%
same,remaining activity at 1.25 µM,[2]; Well no.=4954,101%
Cc1ccc(-c2ccc3c(c2)C=C(C(=O)Nc2ccc(C[N+](C)(C)C4CCOCC4)cc2)CCC3)cc1 [TAK-779],remaining activity at 3.75 µM,[1]; Well no.=8357,101%
same,remaining activity at 1.25 µM,[2]; Well no.=8357,102%
Cc1cc(OCCCS(C)(=O)=O)cc(C)c1-c1cccc(COc2ccc3c(c2)OC[C@H]3CC(=O)O)c1 [TAK-875],remaining activity at 3.75 µM,[1]; Well no.=4966,91.6%
same,remaining activity at 3.75 µM,[1]; Well no.=7771,103%
same,remaining activity at 1.25 µM,[2]; Well no.=4966,96.6%
same,remaining activity at 1.25 µM,[2]; Well no.=7771,107%
